{"source": "patent US12685733B2", "about": "“Indole molecules and use thereof in the inhibition of DNA polymerases” (BioVentures, LLC, priority 2019, dated 2026)", "key": {"T98G cells": {"system": "T98G cells", "assay": "Clonogenic survival assay", "format": "cell-based, human"}, "T98G spheroids (GSC)": {"system": "T98G spheroids (GSC)", "assay": "GSC clonogenic survival assay", "format": "cell-based", "conditions": "50 nM, 3 hours", "method": "GSC clonogenic survival assay. Spheroids proficient and deficient in hpol κ were cultured for 12 days as described above before treating with PNR 7-48 (50 nM) for 3 hours. Spheroids were harvested, titrated into single cell populations and counted via trypan blue exclusion assay. Around 500 viable cells were plated per well in a 6 well dish and allowed to recover for 8-10 days in MEM with 10% FBS. Cells were fixed with 4% formaldehyde (v/v) for 30 min followed by staining with crystal violet (Sigma Aldrich, St. Louis, MO) for 30 min. Total number of colonies were counted using the EVOS microscope, with viable colonies consisting of 25 cells or more. This experiment was done in technical triplicate. As with spheroid growth, clonogenic survival was impeded for T98G cells lacking hpol κ activity (FIG. 11)."}, "[1]": {"system": "hpol κ-proficient HAP-1 cells", "assay": "Alkaline comet assay", "format": "cell-based, human", "method": "(§1) To evaluate DNA damage upon treatment with TMZ and the compound IAG-10, the alkaline comet assay was performed using protocol as described by the manufacturer (Trevigen, Gaithersburg, MD). Briefly, 100 000 HAP-1 cells per well for both the hpol κ-proficient and hpol κ-deficient cell types were plated in a 12-well dish. Both types of cells were treated with 0.5 μM of IAG-10 alone or in combination with TMZ (100 μM) for 1 h. Cells treated with DMSO served as the control. Following treatment, cells were harvested, washed in ice-cold Ix PBS, and counted. The cells were then suspended in low-melting agarose to a final dilution of 200-300 cells per well on the comet slide. The comet slides with wells coated with cell/agarose mixture were incubated at 4° C. in the dark to allow the agarose to solidify before immersing the slides in proprietary lysis solution for 1 h. Each comet slide was then immersed in an alkaline unwinding solution (200 mM NaOH, 1 mM EDTA) for 20 min at RT before placing them in the electrophoresis unit in […] of the same solution. Samples were electrophoresed at 21 V for 30 min at 4° C. The comet slides were washed and dried completely at 37° C. before staining with SYBR Gold diluted in TE buffer (10 mM Tris-HCl, pH 7.5, 1 mM EDTA). The comets were visualized using an EVOS FL Auto microscope (Life Technologies, Carlsbad, CA) set at 10× magnification and were scored using CometScore software. All experiments were repeated in 3 biological replicates with at least 60 comets scored for each condition. Results were plotted using Graphpad Prism, as the percent of DNA in the tail of each comet, and statistical significance between treatment conditions was calculated using one-way ANOVA with the Bonferroni posthoc correction."}, "[2]": {"system": "hpol κ-deficient HAP-1 cells", "assay": "Alkaline comet assay", "format": "cell-based, human", "method": "as §1"}, "[3]": {"conditions": "100 μM TMZ + 0.5 μM IAG-10, 1 h"}, "[4]": {"conditions": "single agent, 1 h: 0.5 μM IAG-10 or 100 μM TMZ"}}}
{"smiles": "Cl.[H]/N=C(\\N)NN=Cc1cn(C(=O)c2cccc3ccccc23)c2ccc(Cl)cc12", "note": "[IAG-10, (E)-2-((1-(1-naphthoyl)-5-chloro-1H-indol-3-y1)methylene)hydrazine-1-carboximidamide hydrochloride]", "values": [{"measurement": "combination index (TMZ and IAG-10, Chou-Talalay)", "setting": "T98G cells; IAG-10 50 nM + TMZ", "result": 0.09}, {"measurement": "decrease of cell proliferation (clonogenic) compared to TMZ alone", "setting": "T98G cells; IAG-10 50 nM along with TMZ, 3 hrs", "result": "~ 10 fold"}, {"measurement": "decrease in GBM-derived cell proliferation compared to NT2 cells", "setting": "T98G cells; IAG-10 alone, concentrations above that used for combination", "result": "~ 2 fold"}, {"measurement": "GSC differentiation", "setting": "T98G spheroids (GSC)", "result": "inhibit GSC differentiation"}, {"measurement": "DNA damage (percent DNA in the tail), combination", "setting": "[1]; [3]", "result": "increased even further"}, {"measurement": "DNA damage (percent DNA in the tail) compared to control", "setting": "[1]; [4]", "result": "approximately twofold"}, {"measurement": "DNA damage (percent DNA in the tail), combination", "setting": "[2]; [3]", "result": "did not increase further"}, {"measurement": "DNA damage (percent DNA in the tail) compared to control", "setting": "[2]; [4]", "result": "did not increase DNA damage over control"}]}
